# Measurements: patent US20040067998A1, “Antifungal and/or antiparasitic pharmaceutical composition and novel indole derivatives as active principle of such a composition” (priority 2003, published 2004)
# Several values for one entry are separate records, joined by “and”; a condition that tells them apart may be missing. Equal values may be shown once. Entries after “also recorded” stand apart in the source; their conditions may differ. Read-outs that look alike come from different tables or passages of the source.
# Assays:
# Assay type in all cases: cell-based
# [1] = system: Candida albicans (strain n° CA980001); assay: Antifungal activity on a clinical strain of Candida albicans (MTT colorimetric microplate test); conditions: for CMI or CI80 Candida albicans (CA980001) / MIC: strain CA980001; for activity of inhibition of Candida albicans (in words): summary of Tables 27 to 40; for MIC: read-out: CMI or CI80 Candida albicans (CA980001)
# [2] = system: promastigote stage of Leishmania mexicana; assay: Antiparasitic activity on the promastigote form of Leishmania (MTT); conditions: for IC50: read-out: CI50 Leishmania mexicana Promastigotes
# [3] = system: Aspergillus fumigatus (strain n°AF 980003); assay: Antifungal activity on a clinical strain of Aspergillus fumigatus (Alamar Blue microplate test); conditions: for CMI or CI80 Aspergillus fumigatus (AF980003) / MIC: strain AF980003; for activity against Aspergillus fumigatus (in words): summary of Tables 27 to 40; for MIC: read-out: CMI or CI80 Aspergillus fumigatus (AF980003)
# [4] = system: Candida albicans (4 strains); assay: Antifungal activity in vitro on clinical strains of Candida: albicans (4 strains)
# [5] = system: Candida lusitaniae (1 strain); assay: Antifungal activity in vitro on clinical strains of Candida: lusitaniae (1 strain)
# [6] = system: Candida parapsilosis (2 strains); assay: Antifungal activity in vitro on clinical strains of Candida: parapsilosis (2 strains)
# [7] = system: Candida krusei (4 strains); assay: Antifungal activity in vitro on clinical strains of Candida: krusei (4 strains)
# [8] = promastigotes, 36 h at 26° C., MTT
SMILES,CMI or CI80 Candida albicans (CA980001) [1],CI50 Leishmania mexicana Promastigotes ([2]; promastigotes) [µg/mL],IC50 ([2]; promastigotes) [µM],CMI or CI80 Aspergillus fumigatus (AF980003) [3],activity against Aspergillus fumigatus (in words) [3],CI50 Leishmania mexicana Promastigotes [2] [µg/mL],IC50 [2] [µM],MIC [3] [µM],activity of inhibition of Candida albicans (in words) [1],MIC [1] [µM],also measured
CCn1c(C(c2ccc(Cl)cc2)n2ccnc2)c(C)c2cc(Br)ccc21 (stereo not drawn) [compound 33],59 ± 1 μM and 25 ± 0.5 μg/mL,2.87 ± 2,6.7 ± 2.1,56 ± 3 μM and 24 ± 1 μg/mL,strong activity,,,,,,activity against Leishmania mexicana (in words) [2]: strong activity
CCn1c(C(c2ccc(Cl)cc2Cl)n2ccnc2)c(C)c2cc(Br)ccc21 (stereo not drawn) [compound 34],48 ± 0.5 μM and 22 ± 0.5 μg/mL,,,,,1.99 ± 0.04,4.28 ± 0.1,>100,,,activity against Leishmania mexicana (in words) [2]: strong activity
CCn1c(C)c(C(c2ccc(F)cc2)n2ccnc2)c2ccccc21 (stereo not drawn) [compound 43],6 ± 1 μM and 2.0 ± 1 μg/mL,1.88 ± 0.1,5.9 ± 0.14,53 ± 3 μM and 17 ± 1 μg/mL,,,,,significant activity,,
CCN1CCc2cccc(C(c3ccc(F)cc3)n3ccnc3)c21 (stereo not drawn) [compound 50],,,,,most active,,,,most active,,"CMI or CI80 Candida albicans (CA980001) ([1]; 24 h at 37° C., MTT): 0.67 ± 0.01 μM and 0.22 ± 0.01 μg/ml; activity against Leishmania mexicana (in words) [2]: most active; CI50 Leishmania mexicana Promastigotes [2, 8]: 0.24 ± 0.017 µg/mL; IC50 [2, 8]: 0.74 ± 0.017 µM; CMI or CI80 Aspergillus fumigatus (AF980003) ([3]; Alamar Blue): 5.4 ± 0.2 μM and 1.7 ± 0.1 μg/ml"
CCn1ccc2cccc(C(c3ccc(F)cc3)n3ccnc3)c21 (stereo not drawn) [compound 57],0.67 ± 0.02 μM and 0.21 ± 0.01 μg/mL,0.80 ± 1.3,2.49 ± 1.3,20 ± 5 μM and 6 ± 2 μg/mL,most active,,,,most active,,
CCn1ccc2cc(Br)cc(C(c3ccc(F)cc3)n3ccnc3)c21 (stereo not drawn) [compound 58],0.69 ± 0.01 μM and 0.27 ± 0.01 μg/mL,2.4 ± 0.12,6.2 ± 0.35,59 ± 4 μM and 23 ± 2 μg/mL,strong activity,,,,most active,,
Clc1ccc(Cn2cc(CCn3ccnc3)c3ccccc32)cc1 [compound 59],,,,,,15.6,87,>100,,>100,
Clc1ccc(Cn2cc(CCCn3ccnc3)c3ccccc32)cc1 [compound 60],,,,,,26.1,74.7,>100,,>100,
Clc1ccccc1Cn1cc(C2(Cn3ccnc3)CCCC2)c2ccccc21 [compound 62],,,,,,28.38,72.8,>100,,>100,
Cc1c(C(C)n2ccnc2)c2ccccc2n1Cc1ccc(F)cc1 (stereo not drawn) [compound 72],67 ± 3 μM and 22 ± 1 μg/mL,,,69 ± 1 μM and 23 ± 1 μg/mL,,0.7 ± 0.3,2 ± 1,,,,
OC(Cn1ccnc1)(Cn1ccc2ccccc21)c1ccc(Br)cc1 (stereo not drawn) [compound 73],0.02 µg/mL,2.7 ± 0.08,6.65 ± 0.22,,,,,>100,most active,0.06,"activity against strains of Candida albicans (in words) ([4]; clinical strains): active; also recorded: very active; CI80 on clinical strains of Candida ([4]; strain CA980001 (Candida albicans)): 0.06 ± 0.002 µM; CI80 on clinical strains of Candida ([4]; strain CA980002 (Candida albicans)): 0.63 ± 0.016 µM; CI80 on clinical strains of Candida ([4]; strain CA980003 (Candida albicans)): 0.55 ± 0.0963 µM; CI80 on clinical strains of Candida ([4]; strain CA980005 (Candida albicans)): 0.53 ± 0.022 µM; activity against Candida lusitaniae (in words) ([5]; clinical strain): very active; CI80 on clinical strains of Candida ([5]; strain CL980001 (Candida lusitaniae)): 0.63 ± 0.01 µM; activity against Candida parapsilosis (in words) ([6]; clinical strains): very active; CI80 on clinical strains of Candida ([6]; strain CP980001 (Candida parapsilosis)): 0.67 ± 0.0 µM; CI80 on clinical strains of Candida ([6]; strain CP980002 (Candida parapsilosis)): 4.65 ± 0.11 µM; activity against Candida krusei (in words) ([7]; clinical strains, b748: one strain): active; also recorded: very active; CI80 on clinical strains of Candida ([7]; strain CK980001 (Candida krusei)): 0.65 ± 0.01 µM; CI80 on clinical strains of Candida ([7]; strain CK980002 (Candida krusei)): 12.81 ± 2.22 µM; CI80 on clinical strains of Candida ([7]; strain CK980003 (Candida krusei)): 92.27 ± 3.90 µM; CI80 on clinical strains of Candida ([7]; strain CK980004 (Candida krusei)): >100 µM"
OC(Cn1ccnc1)(Cn1ccc2ccccc21)c1ccc(F)cc1F (stereo not drawn) [compound 77],0.00035 µg/mL,1.59,4.5,11 ± 7 μM and 4 ± 2 μg/mL,,,,,most active,0.0011,
Clc1ccc(C(Cn2ccc3ccccc32)n2ccnc2)cc1 (stereo not drawn) [compound 85],,,,88 ± 5 μM and 28 ± 2 μg/mL,,,> 100,,,>100,
